As usually defined, the melting point is the temperature, or range, at which the solid turns liquid.

Each structure is given as a SMILES string.

`CN1CC(CO)C(c2ccccc2)(c2ccccc2)C1=O` (stereo not given): the melting point lay in the range of 148 to 150 °C.

`CC(N)C(Cc1ccc(OCc2ccccc2)cc1)CC(O)c1ccccc1F` (stereo not given) showed a melting point of 162 to 163 °C. `CC(C)(C)c1ccc(C(N)=O)c(NC(=O)Nc2cccnc2)c1` yielded a melting point of 188 to 189 °C. To `COc1ccccc1[C@@]1(O)[C@H](O)CC(c2ccccc2)(c2ccccc2)[C@@H]2CN(C(=O)Cc3ccc4ccccc4c3)C[C@@H]21` (racemic) belongs 188 to 190 °C; to `CC(=O)C(C)(C)Nc1ccccc1`, 65 to 66 °C; to `CNS(=O)(=O)c1ccccc1Nc1nc(Nc2ccc3c(c2)COCCN3C)ncc1Cl`, 163 to 164 °C. Then `CC1=C(C)C(=O)C(C(C)c2ccc(CC(=O)O)cc2)=C(C)C1=O` (stereo not given), with 142 to 143 °C; and `O=C(Nc1ccncc1)OC1CN2CCC1CC2` (stereo not given), with 149 to 151 °C; and `COc1ccc(NS(=O)(=O)c2cccc3ccccc23)cc1OCCc1ccc2ccccc2c1`, with 127 to 131 °C.

In turn, `COc1ccc2ncc3c(c2c1)C(O)CCC3` (stereo not given) came in with a melting point of 190 °C. To `COc1ccc(C2(O)c3cc(NC(=O)CC(C)(C)C)c(C)c(C)c3OC2(C)C)c(OC)c1` (stereo not given) belongs 150 to 151 °C; to `O=C(O)CCN1CCN(c2ccc(F)cc2)CC1`, 178 to 180 °C; to `CCC(Oc1cc(OC)ccc1C(=O)c1ccc(OCc2nc(-c3ccccc3)oc2C)cc1)C(=O)O` (stereo not given), 161 to 162 °C. Take `COC(=O)C1=Cc2cc(-c3ccc4c(c3)OCO4)ccc2SCC1`: the melting point lay within 126 to 129 °C. For `CCOC(=O)c1c(Cl)ccc(C(=O)O)c1Cl`, the melting point was 168 °C. Then `CCCNC(=O)c1nc2n(n1)-c1ccc(Cl)cc1C(c1ccccc1Cl)=NC2`, with 110 to 113 °C; and `CCCN(CCC)Cc1cnc(-c2ncn3c2[C@@H]2CCN2C(=O)c2sccc2-3)o1`, with 133 to 135 °C. Take `O=CNCc1ccc2[nH]cc(CCNC(=O)OCc3ccccc3)c2c1`: the melting point was in the range of 114 to 116 °C. Then `COc1ccc(C(=O)c2ccccc2F)c(O)c1C`, with 118 to 120 °C.

Turning to `CC(=O)NCCCCCC(=O)NC[C@@H]1CN2C(=O)C[C@H]2O1` (racemic), the melting point fell in the range of 117 to 118 °C. Molecule `Nc1ccc(C#CCCN2CC=C(c3ccccc3)CC2)nc1` registered a melting point of 136 to 137 °C.

With `Oc1nsc(SCc2ccc(Cl)cc2)n1`, the melting point came out at 138 °C. To `Cc1cncc(CN2CCC(=C3c4ccc(Cl)cc4CCc4cccnc43)CC2)c1` belongs 58 to 61 °C; to `CC(=O)NC(NC(=O)CC(=O)OCc1ccccc1)C(=O)NCc1ccccc1` (stereo not given), 177 to 179 °C; to `CN(c1cccc2cc(-c3ncc(CCC(=O)O)s3)[nH]c12)S(=O)(=O)c1cccs1`, 234 to 235 °C. `C#CC1(OCc2cc(F)ccc2F)CCN(C(C)=O)CC1`: the melting point fell in the range of 90 to 93 °C.

`CNC(=O)N1CCc2cc(S(=O)(=O)N(C)OC)ccc21` had a melting point of 152 °C. `CC(CNc1cc(Oc2ccc3c(C(=O)Nc4cc(C(C)(C)C)nn4-c4ccc(F)cc4)cccc3c2)ncn1)N(C)C` (stereo not given) displayed a melting point of 190 to 193 °C. To `CC(=O)Nc1ccc(C#Cc2c(F)c(F)nc(F)c2F)cc1` belongs 189 to 190 °C; to `COC(=O)c1ccc(CCc2c[nH]c3nc(N)[nH]c(=O)c23)cc1`, > 220 °C. Then `COc1ccc(NN=C(Sc2ccc(C)cc2C)C(C)=O)cc1`, with 109 to 111 °C. Then `CC(C)(C)c1cc(C(=O)NNC(N)=S)cc(C(C)(C)C)c1O`, with 210 to 211 °C; and `CCC(C)(C)N=C(NC#N)Nc1cc(F)cc(Cl)c1`, with 130 to 131 °C. As to `Cc1cccc(NCC(C)Br)c1C` (stereo not given), the melting point lay in the range of 55 to 58 °C.

Take `OOC1(OO)C2CC3CC(C2)CC1C3`: the melting point fell in the range of 144 to 145 °C.

The values above are taken from a melting point compilation (Tetko et al.; mined from patent text by program, amines drawn as free bases though some values may be those of a salt).
